Our source for the TGI and GI50 values is PubChem BioAssay (NCI).

Test systems include BT-549 breast; EKVX NSCLC; SK-MEL-28 melanoma; SN12C renal; T-47D breast; TK-10 renal; UO-31 renal; DMS 114 small cell lung; DMS 273 small cell lung; KM20L2 colon; M19-MEL melanoma; SNB-78 CNS; XF 498 CNS; LXFL 529 NSCLC.
Holding throughout (assay): NCI tumour cell line growth inhibition, 48 h

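A five-concentration, 48-hour dose response in 96-well plates underlies each endpoint, interpolated linearly between surrounding concentrations. GI50 = concentration required for 50% inhibition of growth. TGI marks complete inhibition of growth.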

With `O=C(O)CSc1nc2ccccc2[nH]1`, the TGI in the experiment on BT-549 breast, in the experiment on EKVX NSCLC, in the experiment on SK-MEL-28 melanoma, in the experiment with SN12C renal, in the experiment with T-47D breast and with TK-10 renal was over 100 µM each time. In the experiment with UO-31 renal, this compound had a TGI of over 100 µM.

For `COc1cc(CN(C)N2C(=O)c3cccc4cc([N+](=O)[O-])cc(c34)C2=O)cc(OC)c1OC`, the TGI in the experiment on BT-549 breast, with SK-MEL-28 melanoma, with SN12C renal, in the experiment with T-47D breast and with UO-31 renal was over 100 µM in each case.

Regarding `ClCc1nnc2n1-c1ccc(Cl)cc1SC2`, the TGI with DMS 114 small cell lung was 9.58 µM; with DMS 273 small cell lung, 13 µM; in the experiment on EKVX NSCLC, over 51.9 µM; with KM20L2 colon, 15.9 µM; in the experiment with M19-MEL melanoma, 10.4 µM; in the experiment on SK-MEL-28 melanoma it was 17.6 µM. Moreover, the TGI with SN12C renal is 29.6 µM; in the experiment on SNB-78 CNS it was 18.9 µM; with UO-31 renal, 30.3 µM; in the experiment on XF 498 CNS, 20 µM.

As to `CCNc1nc2c(=O)n(C)c(=O)n(C)c2s1`, the TGI with EKVX NSCLC, in the experiment with KM20L2 colon, with LXFL 529 NSCLC, in the experiment with M19-MEL melanoma, in the experiment with SK-MEL-28 melanoma and in the experiment on SN12C renal was over 100 µM in each case. Moreover, the TGI with SNB-78 CNS, in the experiment with TK-10 renal, in the experiment with UO-31 renal and in the experiment on XF 498 CNS was over 100 µM in each case.

On to `CCOC(=O)c1csc(NC(=O)CCN2CCOCC2)n1`, for which the TGI with EKVX NSCLC, in the experiment with SK-MEL-28 melanoma, in the experiment on T-47D breast, with TK-10 renal and with UO-31 renal was over 100 µM each time.

With `Cc1cc(C)c(S(=O)(=O)N(CCCCCCN)OCCCON(CCCCCCN)S(=O)(=O)c2c(C)cc(C)cc2C)c(C)c1`, the TGI in the experiment with BT-549 breast is 3.26 µM; in the experiment on EKVX NSCLC it was 3.19 µM; with SN12C renal, 3.89 µM; with TK-10 renal, 3.07 µM; in the experiment with UO-31 renal, 4.04 µM.

`O=c1n(Cc2ccccc2)c2ccccc2n1CC1CS1` (configuration not stated): the TGI with DMS 114 small cell lung, in the experiment on DMS 273 small cell lung, in the experiment with EKVX NSCLC, in the experiment on KM20L2 colon, with LXFL 529 NSCLC and in the experiment with M19-MEL melanoma was over 100 µM each time. Besides, the TGI in the experiment with SK-MEL-28 melanoma, in the experiment with SN12C renal, with TK-10 renal, with UO-31 renal and with XF 498 CNS was over 100 µM each time.

Regarding `C=C1CC2(C)CCC(OC(=O)C3(C)OC3C)C(C)(OC(C)=O)C2CC1=C(C)C` (configuration not stated), the TGI with BT-549 breast, in the experiment on EKVX NSCLC, with SK-MEL-28 melanoma, with SN12C renal, in the experiment with T-47D breast and with TK-10 renal was over 100 µM in each case. The compound further had a TGI in the experiment on UO-31 renal of over 100 µM.

For `CC1(C)CCCC2(C)[C@@H]1CC[C@]13C[C@](C)(CC[C@@H]21)[C@@H]3CO` (some centres not stated), the TGI in the experiment on DMS 114 small cell lung, in the experiment on DMS 273 small cell lung, in the experiment with KM20L2 colon, in the experiment on LXFL 529 NSCLC, with M19-MEL melanoma and in the experiment with SK-MEL-28 melanoma was over 100 µM each time. Also, the TGI in the experiment on SN12C renal, in the experiment on SNB-78 CNS, in the experiment with TK-10 renal, in the experiment on UO-31 renal and in the experiment on XF 498 CNS was over 100 µM in each case.

For `Fc1cc(C2=Nn3c(nnc3-c3cc(F)c(Cl)cc3Cl)SC2)c(Cl)cc1Cl`, the GI50 was 24.6 µM in the experiment with EKVX NSCLC; 21.5 µM with SK-MEL-28 melanoma; 18.4 µM with SN12C renal; 4.93 µM with T-47D breast; 37.4 µM with TK-10 renal; 31.3 µM with UO-31 renal. The TGI was 90.3 µM in the experiment with EKVX NSCLC; 54.3 µM in the experiment with SK-MEL-28 melanoma; 55.7 µM with SN12C renal; 32.5 µM in the experiment on T-47D breast; over 100 µM with TK-10 renal; over 100 µM in the experiment on UO-31 renal.

With `COc1ccc2c(c1)C(=O)/C(=C/c1ccccc1)C2`, the TGI in the experiment with BT-549 breast, with SK-MEL-28 melanoma, in the experiment with SN12C renal and in the experiment on UO-31 renal was over 100 µM in each case.
